Laboratory results: PubChem BioAssay (NCI)
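GI50 = concentration required for 50% inhibition of growth. Definition used: TGI = concentration required for complete inhibition of growth.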

Columns and labels:
Assay in all cases: DTP human tumour cell line panel, 384-well format
[1] = system: NCI-H226 lung
[2] = system: UACC-62 melanoma
[3] = system: MCF7 breast
[4] = system: UACC-257 melanoma
[5] = system: T-47D breast
[6] = system: IGROV1 ovarian
[7] = system: PC-3 prostate
[8] = system: SK-MEL-5 melanoma
[9] = system: MDA-MB-468 breast
[10] = system: NCI-H522 lung
[11] = system: NCI/ADR-RES ovarian
[12] = system: K-562 leukemia
[13] = system: SF-268 CNS
[14] = system: HCT-15 colon
[15] = system: MDA-MB-435 melanoma
[16] = system: RPMI-8226 leukemia
[17] = system: BT-549 breast
[18] = system: SK-MEL-2 melanoma
[19] = system: ACHN renal
[20] = system: SNB-19 CNS
[21] = system: SK-MEL-28 melanoma
[22] = system: OVCAR-4 ovarian
[23] = system: MALME-3M melanoma
[24] = system: LOX IMVI melanoma
[25] = system: HOP-62 NSCLC
[26] = system: SF-539 CNS
[27] = system: U251 glioblastoma
[28] = system: OVCAR-5 ovarian
[29] = system: RXF 393 renal
[30] = system: HL-60(TB) leukemia
[31] = system: HCT-116 colon
[32] = system: SW-620 colon
[33] = system: KM12 colon
[34] = system: TK-10 renal
[35] = system: HCC-2998 colon
[36] = system: HOP-92 NSCLC
[37] = system: OVCAR-8 ovarian
[38] = system: COLO 205 colon
[39] = system: OVCAR-3 ovarian
[40] = system: HT29 colon
[41] = system: CCRF-CEM leukemia
[42] = system: SN12C renal
[43] = system: SR leukemia
[44] = system: NCI-H23 lung
[45] = system: A549 NSCLC
[46] = system: 786-0 renal
[47] = system: M14 melanoma
[48] = system: A498 renal
[49] = system: MOLT-4 leukemia
[50] = system: NCI-H322M lung
[51] = system: UO-31 renal
[52] = system: NCI-H460 NSCLC
[53] = system: CAKI-1 renal
[54] = system: SF-295 CNS
[55] = system: SK-OV-3 ovarian
[56] = system: MDA-MB-231 breast
[57] = system: DU-145 prostate

CC1(C)CCC(c2ccc(Cl)cc2)=C(CN2CCN(c3ccc(C(=O)NS(=O)(=O)c4ccc(N[C@H](CCN5CCOCC5)CSc5ccccc5)c(S(=O)(=O)C(F)(F)F)c4)cc3)CC2)C1
GI50 [1]: 1.1 µM | TGI [1]: 2.31 µM | GI50 [2]: 1.8 µM | TGI [2]: 3.19 µM | GI50 [3]: 1.88 µM | TGI [3]: 4.58 µM | GI50 [4]: 1.59 µM | TGI [4]: 3.01 µM | GI50 [5]: 1.87 µM | TGI [5]: 3.52 µM | GI50 [6]: 1.56 µM | TGI [6]: 2.99 µM | GI50 [7]: 1.74 µM | TGI [7]: 3.12 µM | GI50 [8]: 1.66 µM | TGI [8]: 3.02 µM | GI50 [9]: 1.59 µM | TGI [9]: 3.08 µM | GI50 [10]: 1.85 µM | TGI [10]: 3.65 µM | GI50 [11]: 2.8 µM | TGI [11]: 7.69 µM | GI50 [12]: 1.94 µM | TGI [12]: 3.35 µM | GI50 [13]: 1.88 µM | TGI [13]: 3.36 µM | GI50 [14]: 1.75 µM | TGI [14]: 3.18 µM | GI50 [15]: 1.94 µM | TGI [15]: 3.39 µM | GI50 [16]: 0.0821 µM | TGI [16]: 0.207 µM | GI50 [17]: 1.81 µM | TGI [17]: 3.23 µM | GI50 [18]: 1.23 µM | TGI [18]: 2.48 µM | GI50 [19]: 1.8 µM | TGI [19]: 3.2 µM | GI50 [20]: 2.17 µM | TGI [20]: 4.02 µM | GI50 [21]: 1.93 µM | TGI [21]: 3.39 µM | GI50 [22]: 1.27 µM | TGI [22]: 2.79 µM | GI50 [23]: 1.87 µM | TGI [23]: 3.27 µM | GI50 [24]: 1.95 µM | TGI [24]: 3.37 µM | GI50 [25]: 2.03 µM | TGI [25]: 3.49 µM | GI50 [26]: 1.72 µM | TGI [26]: 3.11 µM | GI50 [27]: 1.91 µM | TGI [27]: 3.39 µM | GI50 [28]: 1.46 µM | TGI [28]: 2.84 µM | GI50 [29]: 0.0174 µM | TGI [29]: 0.325 µM | GI50 [30]: 0.195 µM | TGI [30]: 0.893 µM | GI50 [31]: 1.6 µM | TGI [31]: 2.99 µM | GI50 [32]: 0.94 µM | TGI [32]: 2.12 µM | GI50 [33]: 1.76 µM | TGI [33]: 3.23 µM | GI50 [34]: 1.66 µM | TGI [34]: 3.05 µM | GI50 [35]: 0.15 µM | TGI [35]: 0.765 µM | GI50 [36]: 0.135 µM | TGI [36]: 0.771 µM | GI50 [37]: 1.75 µM | TGI [37]: 3.14 µM | GI50 [38]: 1.25 µM | TGI [38]: 2.51 µM | GI50 [39]: 1.56 µM | TGI [39]: 2.9 µM | GI50 [40]: 1.84 µM | TGI [40]: 3.27 µM | GI50 [41]: 0.0698 µM | TGI [41]: 0.198 µM | GI50 [42]: 2.13 µM | TGI [42]: 3.59 µM | GI50 [43]: 0.365 µM | TGI [43]: 2.04 µM | GI50 [44]: 1.73 µM | TGI [44]: 3.13 µM | GI50 [45]: 1.63 µM | TGI [45]: 3.12 µM | GI50 [46]: 1.62 µM | TGI [46]: 3.03 µM | GI50 [47]: 1.83 µM | TGI [47]: 3.24 µM | GI50 [48]: 1.16 µM | TGI [48]: 2.39 µM | GI50 [49]: 0.0221 µM | TGI [49]: 0.064 µM | GI50 [50]: 1.88 µM | TGI [50]: 3.67 µM | GI50 [51]: 1.37 µM | TGI [51]: 2.67 µM | GI50 [52]: 1.84 µM | TGI [52]: 3.28 µM | GI50 [53]: 2.02 µM | TGI [53]: 3.46 µM | GI50 [54]: 1.75 µM | TGI [54]: 3.14 µM | GI50 [55]: 1.96 µM | TGI [55]: 3.48 µM | GI50 [56]: 0.316 µM | TGI [56]: 1.17 µM | GI50 [57]: 2.3 µM | TGI [57]: 4.79 µM
